In patent US11479539B2, “Small molecule modulators of the BTB domain of Keap1” (MedImmune Limited, priority 2017, dated 2022):
pEC50: −log10 of the molar value.

Molecular target: Keap1 (Homo sapiens (Human), UniProt Q14145)
Test: HEK293 ARE luciferase assay
Type: cell-based
Conditions: HEK-293 ARE firefly luciferase transiently transfected cells; 18 h incubation; mean of 1 to 20 individual measurements
Description: The purpose of this assay is to identify small molecule inhibitors of Keap1, preventing Keap1 binding to Nrf2, and thus activating the Nrf2 signalling pathway in HEK-293 ARE firefly luciferase transiently transfected cells. HEK-293 cells express wild-type Keap1 protein and therefore have low constitutive levels of Nrf2 protein and Nrf2-dependent transcription. […] When Keap1 is inhibited, Nrf2 signalling is activated, and there is an increase in luciferase expression and light emission.
Cryopreserved HEK ARE luciferase cells were rapidly thawed in a 37° C. water bath and resuspended in assay culture medium (DMEM, 10% FCS, 2 mM L-glutamine). The cell suspension was pelleted by centrifugation ([…]; 300 g) using a Heraeus benchtop centrifuge. Supernatant was removed and the pellet was gently resuspended in 5 mL culture medium per vial. Cell viability and cell number was measured using an Invitrogen Countess automated cell counter (typical viability 80%), and cells were diluted to a density of 5.0×10^5 cells/mL.
Cells were then plated out into white 384-well plates (Greiner 781080) using a Multidrop Combi, 20 μL/well, to give 10,000 cells/well. As appropriate, test compounds had been added to wells prior to dispensing cells using an Echo 555 acoustic dispenser (Labcyte). Plates were left at room temperature for ˜10 min to promote even cell settling across the plate before incubation for 18 h at 37° C., 95% humidity and 5% CO2.
After 18 h incubation, plates were removed from the incubator and allowed to cool to room temperature for 30 min, before 10 μL per well SteadyGlo reagent detection reagent was added (as per manufacturer's instructions, 10 min before required 10 mL room temperature buffer was added to one vial of lyophilised substrate and inverted several times to fully dissolve). Plates were then incubated in the dark for 30 min before reading on an Envision plate reader.
Compounds were acoustically dispensed using a Labcyte Echo, using a 10 pt dose curve with a top concentration of 100 μM. Assay wells were backfilled with DMSO to a total of 60 nL to maintain 0.3% (v/v) DMSO through the assay.
The Stimulator signal was defined using 30 μM tert-butyl hydroquinone (tBHQ) and the Neutral signal by DMSO vehicle control. All calculations were performed using GeneData.
In IBIS Column Calculations, Assay Type was set to ‘Stimulator’, and the Activity Threshold was set to 50.
The mean values were calculated from anywhere from 1 to 20 individual measurements.

Sequence of Keap1 (Q14145 whole entry): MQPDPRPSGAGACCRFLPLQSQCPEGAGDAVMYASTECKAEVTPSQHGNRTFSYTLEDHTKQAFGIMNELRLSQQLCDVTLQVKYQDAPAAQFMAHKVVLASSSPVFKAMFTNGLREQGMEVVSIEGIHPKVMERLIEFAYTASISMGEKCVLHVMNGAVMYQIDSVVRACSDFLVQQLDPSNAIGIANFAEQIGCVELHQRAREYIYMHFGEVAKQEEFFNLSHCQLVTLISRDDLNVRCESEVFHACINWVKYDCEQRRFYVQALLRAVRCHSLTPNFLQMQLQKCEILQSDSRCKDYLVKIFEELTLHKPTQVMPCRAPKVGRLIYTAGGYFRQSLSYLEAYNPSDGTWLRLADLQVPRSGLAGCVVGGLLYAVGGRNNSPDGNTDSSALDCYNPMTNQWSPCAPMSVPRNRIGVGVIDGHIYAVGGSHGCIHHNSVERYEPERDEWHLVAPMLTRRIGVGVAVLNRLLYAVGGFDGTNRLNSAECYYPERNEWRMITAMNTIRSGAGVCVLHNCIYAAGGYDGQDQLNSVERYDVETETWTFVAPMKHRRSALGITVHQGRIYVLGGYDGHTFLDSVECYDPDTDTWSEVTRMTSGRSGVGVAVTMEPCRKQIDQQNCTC

Question: `COC1(c2ncc(F)cc2-c2cnccc2C#N)C=C(C#N)C(=O)C(C)(C)C1` (single isomer, unassigned) [Compound 217, 2′-[3-cyano-1-methoxy-5,5-dimethyl-4-oxocyclohex-2-en-1-yl]-5′-fluoro[3,3′-bipyridine]-4-carbonitrile] was tested. Which pEC50 did it give?
Answer: 7.92

Question: With `C/C=C/c1cc(F)cnc1C1(OC)C=C(C#N)C(=O)C(C)(C)C1` (single isomer, unassigned) [Compound 94, 3-{5-fluoro-3-[(1E)-prop-1-en-1-yl]pyridin-2-yl}-3-methoxy-5,5-dimethyl-6-oxocyclohex-1-ene-1-carbonitrile] as the molecule, how does the pEC50 read?
Answer: 7.68

Question: `COC1(c2ncc(F)cc2OC(F)F)C=C(C#N)C(=O)C(C)(C)C1` (single isomer, unassigned) [Compound 47, 3-(3-(difluoromethoxy)-5-fluoropyridin-2-yl)-3-methoxy-5,5-dimethyl-6-oxocyclohex-1-enecarbonitrile] was tested. Which pEC50 did it give?
Answer: 8.10

Question: With `COC1(c2nccs2)C=C(C#N)C(=O)C(C)(C)C1` (single isomer, unassigned) [Compound 39, 3-methoxy-5,5-dimethyl-6-oxo-3-(thiazol-2-yl)cyclohex-1-enecarbonitrile] as the molecule, how does the pEC50 read?
Answer: 6.90

Question: How did the pEC50 turn out when `COC1(c2ncc(F)cc2-c2ccc(F)cc2)C=C(C#N)C(=O)C(C)(C)C1` (single isomer, unassigned) [Compound 70, 3-[5-fluoro-3-(4-fluorophenyl)pyridin-2-yl]-3-methoxy-5,5-dimethyl-6-oxocyclohex-1-ene-1-carbonitrile] was run?
Answer: 7.82

Question: `COC1(c2ccc(Cl)cn2)C=C(C#N)C(=O)C(C)(C)C1` (single isomer, unassigned) [Compound 32, 3-(5-chloropyridin-2-yl)-3-methoxy-5,5-dimethyl-6-oxocyclohex-1-enecarbonitrile] was tested. Which pEC50 did it give?
Answer: 7.26

Question: With `COC1(c2ncc(F)cc2-c2ccn3ncnc3c2)C=C(C#N)C(=O)C(C)(C)C1` (stereo not shown) [Compound 190, 3-[5-fluoro-3-([1,2,4]triazolo[1,5-a]pyridin-7-yl)pyridin-2-yl]-3-methoxy-5,5-dimethyl-6-oxocyclohex-1-ene-1-carbonitrile] as the molecule, how does the pEC50 read?
Answer: 5.77

Question: With `COC1(c2ncc(F)cc2-c2cncc(C(C)(C)C#N)c2)C=C(C#N)C(=O)C(C)(C)C1` (single isomer, unassigned) [Compound 222, 3-[5′-(2-cyanopropan-2-yl)-5-fluoro[3,3′-bipyridin]-2-yl]-3-methoxy-5,5-dimethyl-6-oxocyclohex-1-ene-1-carbonitrile] as the molecule, how does the pEC50 read?
Answer: 8.22

Question: With `COC1(c2ccc(C)nc2)C=C(C#N)C(=O)C(C)(C)C1` (stereo not shown) [Compound 16, 3-methoxy-5,5-dimethyl-3-(6-methyl-3-pyridyl)-6-oxo-cyclohexene-1-carbonitrile] as the molecule, how does the pEC50 read?
Answer: 6.18

Question: `COC1(c2ncc(F)cc2-c2cnn(C3CCCC3)c2)C=C(C#N)C(=O)C(C)(C)C1` (stereo not shown) [Compound 180, 3-[3-(1-cyclopentyl-1H-pyrazol-4-yl)-5-fluoropyridin-2-yl]-3-methoxy-5,5-dimethyl-6-oxocyclohex-1-ene-1-carbonitrile] was tested. Which pEC50 did it give?
Answer: 6.94

Question: `CCOC1(c2ncccc2C(F)(F)F)C=C(C#N)C(=O)C(C)(C)C1` (stereo not shown) [Compound 143, 3-ethoxy-5,5-dimethyl-6-oxo-3-[3-(trifluoromethyl)pyridin-2-yl]cyclohex-1-ene-1-carbonitrile] was tested. Which pEC50 did it give?
Answer: 6.86

Question: With `COC1(c2ncc(F)cc2-c2cncc(C(F)(F)F)c2)C=C(C#N)C(=O)C(C)(C)C1` (single isomer, unassigned) [Compound 87, 3-[5-fluoro-3-[5-(trifluoromethyl)-3-pyridyl]-2-pyridyl]-3-methoxy-5,5-dimethyl-6-oxo-cyclohexene-1-carbonitrile] as the molecule, how does the pEC50 read?
Answer: 7.77

Question: With `CO[C@]1(c2ncc(Cl)cn2)C=C(C#N)C(=O)C(C)(C)C1` [Compound 214, (3S)-3-(5-chloropyrimidin-2-yl)-3-methoxy-5,5-dimethyl-6-oxocyclohex-1-ene-1-carbonitrile] as the molecule, how does the pEC50 read?
Answer: 7.70

Question: How did the pEC50 turn out when `COC1(c2sccc2C)C=C(C#N)C(=O)C(C)(C)C1` (stereo not shown) [Compound 139, 3-methoxy-5,5-dimethyl-3-(3-methylthiophen-2-yl)-6-oxocyclohex-1-ene-1-carbonitrile] was run?
Answer: 6.42

Question: How did the pEC50 turn out when `CCc1cncc(-c2cc(F)cnc2C2(OC)C=C(C#N)C(=O)C(C)(C)C2)c1` (single isomer, unassigned) [Compound 233, 3-(5′-ethyl-5-fluoro[3,3′-bipyridin]-2-yl)-3-methoxy-5,5-dimethyl-6-oxocyclohex-1-ene-1-carbonitrile] was run?
Answer: 8.22

Question: How did the pEC50 turn out when `COC1(c2ncc(F)cn2)C=C(C#N)C(=O)C(C)(C)C1` (single isomer, unassigned) [Compound 216, 3-(5-fluoropyrimidin-2-yl)-3-methoxy-5,5-dimethyl-6-oxocyclohex-1-ene-1-carbonitrile] was run?
Answer: 7.68

Question: With `CCOC1(c2ccc(F)cn2)C=C(C#N)C(=O)C(C)(C)C1` (stereo not shown) [Compound 145, 3-ethoxy-3-(5-fluoropyridin-2-yl)-5,5-dimethyl-6-oxocyclohex-1-ene-1-carbonitrile] as the molecule, how does the pEC50 read?
Answer: 7.19

Question: `COC1(c2cccc(Br)n2)C=C(C#N)C(=O)C(C)(C)C1` (stereo not shown) [Compound 2, 3-(6-bromo-2-pyridyl)-3-methoxy-5,5-dimethyl-6-oxo-cyclohexene-1-carbonitrile] was tested. Which pEC50 did it give?
Answer: 6.64

Question: With `COC1(c2cncc(C)n2)C=C(C#N)C(=O)C(C)(C)C1` (stereo not shown) [Compound 30, 3-methoxy-5,5-dimethyl-3-(6-methylpyrazin-2-yl)-6-oxocyclohex-1-enecarbonitrile] as the molecule, how does the pEC50 read?
Answer: 6.34

Question: How did the pEC50 turn out when `COC1(c2ncc(F)cc2-c2cncc(S(=O)(=O)C(C)C)c2)C=C(C#N)C(=O)C(C)(C)C1` (single isomer, unassigned) [Compound 221, 3-{5-fluoro-5′-[(propan-2-yl)sulfonyl][3,3′-bipyridin]-2-yl}-3-methoxy-5,5-dimethyl-6-oxocyclohex-1-ene-1-carbonitrile] was run?
Answer: 8.10

Question: How did the pEC50 turn out when `COC1(c2ccc(C)cn2)C=C(C#N)C(=O)C(C)(C)C1` (stereo not shown) [Compound 239, 3-methoxy-5,5-dimethyl-3-(5-methylpyridin-2-yl)-6-oxocyclohex-1-ene-1-carbonitrile] was run?
Answer: 7.30

Question: With `COC1(c2ncc(F)cc2-c2cnc(C)nc2)C=C(C#N)C(=O)C(C)(C)C1` (single isomer, unassigned) [Compound 89, 3-[5-fluoro-3-(2-methylpyrimidin-5-yl)-2-pyridyl]-3-methoxy-5,5-dimethyl-6-oxo-cyclohexene-1-carbonitrile] as the molecule, how does the pEC50 read?
Answer: 7.96

Question: `COc1ccccc1-c1cccc(C2(OC)C=C(C#N)C(=O)C(C)(C)C2)n1` (stereo not shown) [Compound 120, 3-methoxy-3-[6-(2-methoxyphenyl)pyridin-2-yl]-5,5-dimethyl-6-oxocyclohex-1-ene-1-carbonitrile] was tested. Which pEC50 did it give?
Answer: 6.61

Question: How did the pEC50 turn out when `COC1(c2ncccc2Cl)C=C(C#N)C(=O)C(C)(C)C1` (stereo not shown) [Compound 114, 3-(3-chloropyridin-2-yl)-3-methoxy-5,5-dimethyl-6-oxocyclohex-1-ene-1-carbonitrile] was run?
Answer: 6.63

Question: `COC1(c2ncc(F)cc2-c2sc(C)nc2C)C=C(C#N)C(=O)C(C)(C)C1` (stereo not shown) [Compound 191, 3-[3-(2,4-dimethyl-1,3-thiazol-5-yl)-5-fluoropyridin-2-yl]-3-methoxy-5,5-dimethyl-6-oxocyclohex-1-ene-1-carbonitrile] was tested. Which pEC50 did it give?
Answer: 7.92

Question: `COC1(c2ncc(F)cc2-c2ccnc(C)c2)C=C(C#N)C(=O)C(C)(C)C1` (single isomer, unassigned) [Compound 76, 3-[5-fluoro-3-(2-methyl-4-pyridyl)-2-pyridyl]-3-methoxy-5,5-dimethyl-6-oxo-cyclohexene-1-carbonitrile] was tested. Which pEC50 did it give?
Answer: 8.52

Question: `CC1(C)CC(O)(c2ncccc2C(F)F)C=C(C#N)C1=O` (stereo not shown) [Compound 6, 3-[3-(difluoromethyl)-2-pyridyl]-3-hydroxy-5,5-dimethyl-6-oxo-cyclohexene-1-carbonitrile] was tested. Which pEC50 did it give?
Answer: < 5.00

Question: How did the pEC50 turn out when `COC1(c2nccs2)C=C(C#N)C(=O)C(C)(C)C1` (stereo not shown) [Compound 144, 3-methoxy-5,5-dimethyl-6-oxo-3-(1,3-thiazol-2-yl)cyclohex-1-ene-1-carbonitrile] was run?
Answer: 6.41

Question: How did the pEC50 turn out when `COC1(c2cccc(C(F)(F)F)n2)C=C(C#N)C(=O)C(C)(C)C1` (stereo not shown) [Compound 20, 3-methoxy-5,5-dimethyl-6-oxo-3-[6-(trifluoromethyl)-2-pyridyl]cyclo-hexene-1-carbonitrile] was run?
Answer: 6.90

Question: `COC1(c2ncc(F)cc2-c2ccns2)C=C(C#N)C(=O)C(C)(C)C1` (stereo not shown) [Compound 178, 3-[5-fluoro-3-(1,2-thiazol-5-yl)pyridin-2-yl]-3-methoxy-5,5-dimethyl-6-oxocyclohex-1-ene-1-carbonitrile] was tested. Which pEC50 did it give?
Answer: 7.28

Question: `COC1(c2cccnc2Cl)C=C(C#N)C(=O)C(C)(C)C1` (stereo not shown) [Compound 18, 3-(2-chloro-3-pyridyl)-3-methoxy-5,5-dimethyl-6-oxo-cyclohexene-1-carbonitrile] was tested. Which pEC50 did it give?
Answer: 6.58
